In patent publication US20040005708A1, “Polypeptide derivatives and nucleic acid carriers containing the same” (priority 2002, published 2004):

What was measured:
HepG2 cells = settings: Plasmid A (luciferase) complex, plasmid/pDBA weight ratio 1/3 to 1/7, 10% fetal bovine serum, 4 h then 48 h incubation, compared to non-modified pDBA
Method: Thirty minutes prior to administration, the nucleic acid carriers were added dropwise to the plasmid solution while stirring to prepare plasmid/pDBA complex solutions. PBS was used as solvent. Specifically, 25.0 μg/ml plasmid solutions were prepared, and plasmid/pDBA complex solutions having a plasmid concentration of 12.5 μg/ml were used as the gene transfer samples.
HepG2 cells were inoculated onto a 12-well multi-well plate (Coaster Inc.) at 1×10^5 cells/well one day prior to testing. The plasmid/pDBA complex solution was added to the HepG2 cells in the presence of 10% fetal bovine serum (Sanko Junyaku Co. Ltd.), and incubation was carried out at 37° C. for 4 hours. Medium was exchanged with a fresh culture medium and incubation continued for 48 hours. After washing with PBS twice, a cell lysis reagent (Toyo Ink Co. Ltd.) was added and freeze-thaw was carried out once. The cell lysate was recovered and subjected to centrifugation (12,000 rpm×10 minutes). The luciferase activity of the supernatant was determined with a luminometer (LumitLB9501; Berthold Inc.) using a luciferase assay system (Toyo Ink Co. Ltd.). The protein concentration of the centrifuged supernatant was also determined with a microplate reader (Rainbow Themo; Tecan Inc.) using a protein assay kit (Bio-Rad Inc.). […]

mice = settings: tail vein, Plasmid A 12.5 μg/0.5 ml per mouse, plasmid/pDBA weight ratio 1/3, two days after administration
Method: A solution of Plasmid A and a solution of pDBA were prepared at twice the desired concentration. Thirty minutes prior to administration, the pDBA solutions were added dropwise to the plasmid solution while stirring to prepare plasmid/pDBA complexes solution. PBS was used as solvent. Specifically, 50.0 μg/ml plasmid solutions were prepared, and plasmid/pDBA complex solutions having a plasmid concentration of 25 μg/ml were used as the gene transfer samples.
The complex solutions were administered to mice through their tail veins. The dosage of Plasmid A per mouse was 12.5 μg/0.5 ml. Two days after administration the gene transfer to the tissue was determined by measuring the luciferase activity found in the liver.

## side chain galactose-modified poly-DL-diaminobutyric acid [Gal-pDBA]
HepG2 cells
  activity of luciferase expressed: higher luciferase activity than did non-modified pDBA
mice
  luciferase activity in the liver as compared to the group where pDBA was used as the nucleic acid carrier: about 2.5 fold
